Test results reported in publication PMC9774241, “Associating Biological Activity and Predicted Structure of Antimicrobial Peptides from Amphibians and Insects” (Antibiotics, 2022).
In brackets after ≈: the same amount, converted by molar mass. Residues, ends and D or L forms follow the SMILES beside them.

Experiments:
Format in all cases: cell-based
Conditions in all cases: broth microdilution in MHB, peptide 128 down to 0.5 µg/mL, 20–24 h at 37 °C, no visible growth; range of three independent experiments
[1] = test system: Staphylococcus aureus ATCC 29213
Procedure: (§1) Bacteria were grown overnight at 37 °C in Mueller-Hinton Broth (MHB; Sigma-Aldrich, St. Louis. MO, USA) in a shaking incubator and aliquoted into cryovials with a 50% glycerol solution in a 1:1 ratio. No additives were added to the MHB during the growth of bacterial isolates. Glycerol stocks were stored at −80 °C.
(§2) The antimicrobial activity of the putative AMPs was determined by a broth microdilution assay as described by the Clinical and Laboratory Standards Institute, with the published adaptations for testing of cationic peptides. Escherichia coli 25922 and Staphylococcus aureus 29213 isolates were purchased from the American Type Culture Collection (ATCC; Manassas, VA, USA). A human clinical isolate of Salmonella enterica serovar Enteritidis was provided by the BC Centre for Disease Control. Bacteria from stocks stored at −80 °C were streaked onto nonselective Columbia blood agar with 5% sheep blood (Oxoid) and incubated overnight at 37 °C. Next, 2–4 colonies were streaked onto a new agar plate to ensure uniform health of colonies used in the broth microdilution assay. Isolated colonies were suspended in MHB and the optical density was measured with a spectrophotometer to create an initial inoculum concentration of approximately 1 × 10^8 cfu/mL. The inoculum was diluted 1:250 to a final concentration of 2–8 × 10^5 cfu/mL, which was confirmed by performing a Total Viability Count (TVC). The TVC consisted of plating a 1:1000 dilution of the final inoculum on nonselective media and was also used to confirm the health and purity of the inoculum in each trial.
(§3) Lyophilized 80 µg peptide aliquots synthesized by GenScript (Piscataway, NJ, USA) were resuspended to 1.28 mg/mL with UltraPure water (Thermo Fisher Scientific, Waltham, MA, USA) and serially diluted in polypropylene 96-well microtiter plates (Greiner Bio-One #650261, Kremsmünster, Austria) from 128 down to 0.5 µg/mL. Two columns per plate were reserved for growth and sterility controls. Inoculum was added to the wells containing the peptide and the growth control. Plates were incubated for 20–24 h at 37 °C. The minimum inhibitory concentration (MIC) was determined as the lowest peptide concentration where there was no visible bacterial growth.

[2] = test system: Escherichia coli ATCC 25922
Procedure: as §1, §2, §3

[3] = test system: Salmonella enterica serovar Enteritidis (human clinical isolate)
Procedure: as §1, §2, §3

Row | SMILES | MIC, S. aureus ATCC 29213 [1] [µg/mL] | MIC, E. coli ATCC 25922 [2] [µg/mL] | MIC, Salmonella Enteritidis [3] [µg/mL]
1 | CC[C@H](C)[C@H](NC(=O)[C@H](CCCCN)NC(=O)[C@H](CS)NC(=O)[C@H](Cc1ccccc1)NC(=O)[C@H](CCCCN)NC(=O)[C@H](CCCNC(=N)N)NC(=O)[C@H](CO)NC(=O)[C@H](Cc1ccc(O)cc1)NC(=O)CNC(=O)[C@H](CS)NC(=O)[C@@H]1CCCN1C(=O)[C@H](C)NC(=O)[C@@H](NC(=O)[C@H](C)NC(=O)[C@H](Cc1ccccc1)NC(=O)[C@H](Cc1ccccc1)NC(=O)[C@H](Cc1ccccc1)NC(=O)[C@H](CCCNC(=N)N)NC(=O)[C@@H](N)CCCNC(=N)N)[C@@H](C)O)C(=O)N[C@H](C(=O)N[C@@H](CCCNC(=N)N)C(=O)N[C@@H](CCCNC(=N)N)C(=O)N[C@@H](CCCCN)C(=O)N[C@@H](CCCNC(=N)N)C(=O)O)[C@@H](C)O [CaCa4] (H-RRFFFATAPCGYSRKFCKITRRKR-OH) | > 128 | 16 to 32 | 32 to 64
2 | CC[C@H](C)[C@H](NC(=O)CNC(=O)[C@H](CO)NC(=O)[C@H](CC(C)C)NC(=O)[C@H](CC(C)C)NC(=O)CN)C(=O)N[C@@H](CC(C)C)C(=O)NCC(=O)N[C@@H](C)C(=O)NCC(=O)N[C@@H](CCCCN)C(=O)N[C@@H](CCCCN)C(=O)N[C@H](C(=O)N[C@H](C(=O)N[C@@H](CS)C(=O)NCC(=O)N[C@@H](Cc1ccccc1)C(=O)N[C@@H](CO)C(=O)NCC(=O)N[C@@H](CC(C)C)C(=O)N[C@@H](CS)C(=O)O)C(C)C)[C@@H](C)CC [OdMa1] (H-GLLSGILGAGKKIVCGFSGLC-OH; N-terminus and C-terminus assumed) | 64 (≈ 32.1 µM) | 8 to 16 | 128 (≈ 64.2 µM)
3 | CC[C@H](C)[C@H](NC(=O)[C@H](CCCCN)NC(=O)[C@H](CCCCN)NC(=O)CNC(=O)[C@H](C)NC(=O)CNC(=O)[C@H](CC(C)C)NC(=O)[C@H](CC(C)C)NC(=O)CNC(=O)[C@H](CO)NC(=O)[C@H](CC(C)C)NC(=O)[C@H](CC(C)C)NC(=O)CN)C(=O)N[C@H](C(=O)N[C@@H](CS)C(=O)NCC(=O)N[C@@H](CC(C)C)C(=O)N[C@@H](CO)C(=O)NCC(=O)N[C@@H](CCSC)C(=O)N[C@@H](CS)C(=O)O)C(C)C [OdMa3] (H-GLLSGLLGAGKKIVCGLSGMC-OH; N-terminus and C-terminus assumed) | 32 (≈ 16.2 µM) | 8 to 16 | 64 (≈ 32.4 µM)
4 | CC[C@H](C)[C@H](NC(=O)CN)C(=O)N[C@@H](CC(C)C)C(=O)N[C@@H](CO)C(=O)NCC(=O)N[C@@H](CC(C)C)C(=O)N[C@@H](CC(C)C)C(=O)NCC(=O)N[C@@H](C)C(=O)NCC(=O)N[C@@H](CCCCN)C(=O)N[C@@H](CCCCN)C(=O)N[C@H](C(=O)N[C@H](C(=O)N[C@@H](CS)C(=O)NCC(=O)N[C@@H](CC(C)C)C(=O)N[C@@H](CO)C(=O)NCC(=O)N[C@@H](CC(C)C)C(=O)N[C@@H](CS)C(=O)O)C(C)C)[C@@H](C)CC [OdMa5] (H-GILSGLLGAGKKIVCGLSGLC-OH; N-terminus and C-terminus assumed) | 8 to 16 | 8 to 16 | 64 to 128
5 | CC[C@H](C)[C@H](NC(=O)[C@H](CCCCN)NC(=O)[C@H](CCCCN)NC(=O)CNC(=O)[C@@H](NC(=O)CNC(=O)[C@H](CC(C)C)NC(=O)[C@@H](NC(=O)CNC(=O)[C@H](CO)NC(=O)[C@H](CC(C)C)NC(=O)[C@H](CC(C)C)NC(=O)CN)C(C)C)C(C)C)C(=O)N[C@H](C(=O)N[C@@H](CS)C(=O)NCC(=O)N[C@@H](CC(C)C)C(=O)N[C@@H](CO)C(=O)NCC(=O)N[C@@H](CC(C)C)C(=O)N[C@@H](CS)C(=O)O)C(C)C [OdMa6] (H-GLLSGVLGVGKKIVCGLSGLC-OH; N-terminus and C-terminus assumed) | 16 to 32 | 8 to 16 | 128 (≈ 64.9 µM)
6 | CC(C)C[C@H](NC(=O)CNC(=O)[C@H](CO)NC(=O)[C@H](CC(C)C)NC(=O)CNC(=O)[C@H](CS)NC(=O)[C@H](CC(C)C)NC(=O)[C@@H](NC(=O)[C@H](CCCCN)NC(=O)[C@H](CCCCN)NC(=O)CNC(=O)[C@@H](NC(=O)CNC(=O)[C@H](CC(C)C)NC(=O)[C@@H](NC(=O)CNC(=O)[C@H](CO)NC(=O)[C@H](CC(C)C)NC(=O)[C@H](CC(C)C)NC(=O)CN)C(C)C)C(C)C)C(C)C)C(=O)N[C@@H](CS)C(=O)O [OdMa7] (H-GLLSGVLGVGKKVLCGLSGLC-OH; N-terminus and C-terminus assumed) | 16 to 32 | 8 to 16 | 128 (≈ 64.9 µM)
7 | CC[C@H](C)[C@H](NC(=O)CNC(=O)[C@H](CO)NC(=O)[C@@H](NC(=O)[C@H](CC(C)C)NC(=O)CN)[C@@H](C)CC)C(=O)N[C@@H](CC(C)C)C(=O)NCC(=O)N[C@@H](C)C(=O)NCC(=O)N[C@@H](CCCCN)C(=O)N[C@@H](CCCCN)C(=O)N[C@H](C(=O)N[C@@H](CC(C)C)C(=O)N[C@@H](CS)C(=O)NCC(=O)N[C@@H](CC(C)C)C(=O)N[C@@H](CO)C(=O)NCC(=O)N[C@@H](CC(C)C)C(=O)N[C@@H](CS)C(=O)O)C(C)C [OdMa10] (H-GLISGILGAGKKVLCGLSGLC-OH; N-terminus and C-terminus assumed) | 64 to 128 | 16 to 32 | > 128
8 | CC[C@H](C)[C@H](NC(=O)[C@H](CCCCN)NC(=O)[C@H](CS)NC(=O)[C@H](CCCCN)NC(=O)[C@H](CC(C)C)NC(=O)[C@H](CC(N)=O)NC(=O)[C@H](Cc1ccc(O)cc1)NC(=O)[C@H](CC(C)C)NC(=O)[C@H](CC(C)C)NC(=O)[C@@H](NC(=O)[C@@H](NC(=O)[C@H](C)NC(=O)[C@@H](NC(=O)[C@H](CC(N)=O)NC(=O)[C@H](CCCCN)NC(=O)[C@H](C)NC(=O)[C@@H](NC(=O)[C@H](CC(N)=O)NC(=O)[C@H](CCCCN)NC(=O)[C@H](C)NC(=O)[C@@H](NC(=O)[C@H](CC(=O)O)NC(=O)[C@H](CCSC)NC(=O)[C@H](Cc1ccccc1)NC(=O)CN)[C@@H](C)O)C(C)C)C(C)C)C(C)C)[C@@H](C)O)C(=O)N[C@H](C(=O)N[C@@H](CCCCN)C(=O)N[C@@H](C)C(=O)N[C@@H](CS)C(=O)O)[C@@H](C)O [OdMa12] (H-GFMDTAKNVAKNVAVTLLYNLKCKITKAC-OH; N-terminus and C-terminus assumed) | 64 to 128 | 4 (≈ 1.27 µM) | 64 (≈ 20.3 µM)
9 | CC[C@H](C)[C@H](NC(=O)CN)C(=O)N[C@@H](CC(C)C)C(=O)N[C@@H](CO)C(=O)NCC(=O)N[C@@H](CC(C)C)C(=O)N[C@@H](CC(C)C)C(=O)NCC(=O)N[C@@H](C)C(=O)NCC(=O)N[C@@H](CCCCN)C(=O)N[C@@H](CCCCN)C(=O)N[C@@H](CC(C)C)C(=O)N[C@@H](C)C(=O)N[C@@H](CS)C(=O)NCC(=O)N[C@@H](CC(C)C)C(=O)N[C@H](C(=O)NCC(=O)N[C@@H](CC(C)C)C(=O)N[C@@H](CS)C(=O)O)[C@@H](C)CC [OdTo1] (H-GILSGLLGAGKKLACGLIGLC-OH; N-terminus and C-terminus assumed) | 8 to 16 | 8 (≈ 4.09 µM) | 32 to 64
10 | CC[C@H](C)[C@H](NC(=O)CN)C(=O)N[C@@H](Cc1ccccc1)C(=O)NCC(=O)NCC(=O)N[C@@H](Cc1c[nH]cn1)C(=O)N[C@@H](CC(C)C)C(=O)N[C@@H](CCCCN)C(=O)N[C@H](C(=O)NCC(=O)N[C@@H](CCCCN)C(=O)N[C@@H](CCCCN)C(=O)N[C@H](C(=O)N[C@@H](C)C(=O)N[C@@H](CS)C(=O)NCC(=O)N[C@@H](CC(C)C)C(=O)N[C@@H](CO)C(=O)NCC(=O)N[C@@H](CC(C)C)C(=O)N[C@@H](CS)C(=O)O)[C@@H](C)CC)C(C)C [OdTo2] (H-GIFGGHLKVGKKIACGLSGLC-OH; N-terminus and C-terminus assumed) | > 128 | 32 (≈ 15.5 µM) | > 128
